Source: publication PMC6562543 (Marine Drugs, 2019)

Key:
[1] = rat, in vivo, cited from earlier work
mice [2] = test system: mice; parameters: species or system Kunming mice; details: mouse, in vivo, iv
[3] = in vivo; cited from earlier work
mice [4] = details: mouse, in vivo; SEM
mice [5] = test system: mice; parameters: species or system Kunming mice (ICR mice for intranasal treatment); details: mouse, in vivo

SMILES: CSCC[C@@H]1NC(=O)[C@H](CC(C)C)NC(=O)[C@H](CCCNC(=N)N)NC(=O)[C@H](CO)NC(=O)[C@@H]2CSSC[C@@H]3NC(=O)[C@H](CO)NC(=O)CNC(=O)[C@H]([C@@H](C)O)NC(=O)[C@H](CSSC[C@H](N)C(=O)N[C@@H](CCCCN)C(=O)NCC(=O)N[C@@H](CCCCN)C(=O)NCC(=O)N[C@@H](C)C(=O)N[C@@H](CCCCN)C(=O)N2)NC(=O)[C@H](CSSC[C@@H](C(N)=O)NC(=O)[C@H](CCCCN)NC(=O)CNC(=O)[C@H](CO)NC(=O)[C@H](CCCNC(=N)N)NC3=O)NC(=O)[C@H](CC(=O)O)NC(=O)[C@H](Cc2ccc(O)cc2)NC1=O [MVIIA, ω-Conotoxin MVIIA]
- AUC0-6 in CSF ([1]; iv): 4.98 ± 0.97 µg·min/mL
- Cmax in CSF ([1]; iv): 37.78 ± 6.8 ng/mL
- Tmax in CSF ([1]; iv): ~ 2 h
- bioavailability in CSF following intranasal versus intravenous administration [1]: two fold greater
- effect on writhing numbers (mice [2]): failed to attenuate writhing numbers
- antinociceptive potency relative to intrathecal morphine [3]: 100 times
- potency relative to morphine [3]: 100 times
- stay time on rotarod (mice [4]): 74.5 ± 20.28 s
- time after which the effect disappeared (mice [5]): ≤ 4 h
- time of maximal antinociceptive effect (mice [5]): 1 h
- antinociceptive effect (mice [5]; iv): no effect
